# Data from patent US20100029654A1, “CARDIOVASCULAR COMPOSITIONS AND USE OF THE SAME FOR THE TREATMENT OF ALZHEIMER'S DISEASE” (MOUNT SINAI SCHOOL OF MEDICINE, priority 2006, published 2010).
# Structures can show the parent of a compound that is named as a salt. Where two headings read alike, the source gives them in different places.
# What was measured:
# Aβ1-40 = Aβ1-40 content in conditioned medium of primary cortico-hippocampal neuron cultures from Tg2576 mice (ELISA; primary and secondary dose-response screening); format: cell-based, mouse; settings: for activity at 100 µM / EC50: Mus musculus; for activity at 100 µM / Ab1-40 (% of ctl): drug 100 μM; for activity at 100 µM: read-out: Ab1-40 (% of ctl); for reduced Aβ1-40: <85% of ctl
# Summary of the method: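 Primary cortico-hippocampal neurons from embryonic Tg2576 mice were plated at 1.0×10^5 cells per well on poly-D-lysine-coated 96-well plates in Neurobasal with 2% B27, 0.5 mM L-glutamine and 1% penicillin-streptomycin. Cultures received drug in 1% DMSO, and Aβ1-40 in the conditioned medium was measured by BioSource ELISA 24 hours after treatment, relative to vehicle controls.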
# Aβ1-42 [1] = assay: Aβ1-42 content in conditioned medium of primary cortico-hippocampal neuron cultures from Tg2576 mice (ELISA; primary and secondary dose-response screening); format: cell-based, mouse; settings: for activity at 100 µM: Mus musculus, Neuron, 24 h, read-out: Ab1-42 (% of ctl); for activity at 100 µM / Ab1-42 (% of ctl): drug 100 μM; for reducing Aβ1-42: <85% of ctl
# Summary of the method: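 This screen tested cardiovascular drugs for Aβ-lowering in Tg2576 embryonic cortico-hippocampal neuron cultures plated at 1.0×10^5 cells per well in poly-D-lysine-coated 96-well plates with Neurobasal/B27 medium. Drugs at 100 μM were added directly to the medium in duplicate, with 1% DMSO alone as the control. Conditioned medium was then collected, and its Aβ1-42 level was quantified with BioSource ELISA kits.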
# Aβ1-42 [2] = assay: as above; format: cell-based, mouse; settings: Mus musculus; for EC50: Neuron; for activity at 100 µM: primary screening, drug 100 μM, Tg2576 neuron cultures, table sorted by Aβ1-42, read-out: Ab1-42 (% of ctl)
# [3] = tested on: primary cortico-hippocampal neuron cultures; assay: MTT in primary screening
# [4] = tested on: primary cortico-hippocampal neuron cultures; assay: lactate dehydrogenase (LDH) activity assay in parallel neuron cultures; settings: for LDH (at 5F-5 M): Table IV; for LDH at E-5M % of change: drug at E-5M
# Experimental: For in vitro treatments drugs available from “The Spectrum Collection” in stocks of 10 mM in DMSO were applied directly to cultures to the desired concentrations (final 1% DMSO); control primary neuron cultures from Tg2576 embryos were treated with vehicle resulting in a final 1% DMSO.
# Cell viability was assessed using a commercial available LDH assay kit according to the manufacture's instruction (Promega).
# [5] = Neuron, 24 h, Primary Screening, table sorted by Aβ1-40
# [6] = Neuron, 24 h, primary screening, Tg2576 neuron cultures, table sorted by Aβ1-42
# [7] = Neuron, Table IV, dose-response 0.01-100 μM, read-out: EC50 (M): Ab-lowering activity Abeta1-40
# [8] = Neuron, secondary dose-response screening 0.01-100 μM, 24 hours, read-out: EC50 (molar) Aβ1-40
# [9] = Primary Screening, table sorted by Aβ1-40
# [10] = primary screening, Tg2576 neuron cultures, table sorted by Aβ1-42
# [11] = 24 h, secondary dose-response screening 0.01-100 μM, 24 hours, read-out: EC50 (molar) Aβ1-42
# [12] = Table IV, dose-response 0.01-100 μM, read-out: EC50 (M): Ab-lowering activity
# [13] = primary screening, table sorted by Aβ1-42
# [14] = 24 h, primary screening, Tg2576 neuron cultures, table sorted by Aβ1-42
SMILES,activity at 100 µM (Aβ1-40; [5]) [%],activity at 100 µM (Aβ1-40; [6]) [%],EC50 (Aβ1-40; [8]) [M],reduced Aβ1-40 (Aβ1-40; primary screening),activity at 100 µM (Aβ1-42 [1]; [9]) [%],activity at 100 µM (Aβ1-42 [1]; [10]) [%],reducing Aβ1-42 (Aβ1-42 [1]; primary screening),EC50 (Aβ1-42 [2]; [11]) [M],"MTT (% of ctl) [3, 9]","MTT (% of ctl) [3, 13]","LDH (% of ctl) [4, 9]",LDH at E-5M % of change [4] [%],"LDH (% of ctl) [4, 13]",activity at 100 µM (Aβ1-40; [14]) [%],Ab1-40 (% of ctl) (Aβ1-40; [9]),Ab1-42 (% of ctl) (Aβ1-42 [1]; [9]),activity at 100 µM (Aβ1-42 [2]; 24 h) [%],also measured
N=C(N)NC(=O)c1nc(Cl)c(N)nc1N [Amiloride Hydrochloride],77.5,77.5,8.67e-05,reduced Aβ1-40,47.1,47.1,useful in reducing Aβ1-42,0.039,80.8 % of ctl,80.8 % of ctl,104.7 % of ctl,6.4,104.7 % of ctl,,,,,EC50 (Aβ1-40; [7]): 8.67e-05 M; EC50 (Aβ1-42 [2]; [12]): 3.01e-05 M; LDH (at 5F-5 M) [4]: no change
NCCCCCC(=O)O [Aminocaproic Acid],,,,,,,,,80.3 % of ctl,80.3 % of ctl,90.4 % of ctl,,90.4 % of ctl,124,124.4 % of ctl,184.3 % of ctl,184,
COc1cc2c3cc1Oc1c(OC)c(OC)cc4c1[C@@H](Cc1cccc(c1)Oc1ccc(c(O)c1)C[C@@H]3N(C)CC2)N(C)CC4 [Berbamine Hydrochloride],,,,,,,,,97.6 % of ctl,97.6 % of ctl,129.1 % of ctl,,129.1 % of ctl,119,119.1 % of ctl,150.6 % of ctl,151,
COc1ccccc1OCCNCC(O)COc1cccc2[nH]c3ccccc3c12 (stereo not shown) [Carvedilol],38.3,38.3,6.61e-05,reduced Aβ1-40,30.8,30.8,useful in reducing Aβ1-42,0.000132,66.7 % of ctl,66.7 % of ctl,148.6 % of ctl,,148.6 % of ctl,,,,,"EC50 (Aβ1-40; [7]): 6.61e-05 M; EC50 (Aβ1-42 [2]; 24 h, conditioned medium of primary cortico-hippocampal neuron cultures from Tg2576 embryos, 24 hours after treatment, relative to vehicle (1% DMSO) control, read-out: EC50 (molar) Aβ1-42): 0.000132 M; EC50 (Aβ1-42 [2]; [12]): 0.000132 M; LDH (at 5F-5 M) [4]: no change"
CCN1C[C@]2(C)CC[C@H](OC)[C@@]34C1[C@]1(OCO[C@@]15C[C@H](OC)[C@H]1C[C@]3(O)[C@@H]5[C@H]1OC)[C@@H](OC(C)=O)[C@H]24 [Deltaline],,,,,,,,,99.4 % of ctl,99.4 % of ctl,118.9 % of ctl,,118.9 % of ctl,121,121.0 % of ctl,143.0 % of ctl,143,
C[C@H]1O[C@@H](O[C@H]2[C@@H](O)C[C@H](O[C@H]3[C@@H](O)C[C@H](O[C@H]4CC[C@@]5(C)[C@H](CC[C@@H]6[C@@H]5CC[C@]5(C)[C@@H](C7=CC(=O)OC7)CC[C@]65O)C4)O[C@@H]3C)O[C@@H]2C)C[C@H](O)[C@@H]1O [Digitoxin],,,,reduced Aβ1-40,,,,,86.0 % of ctl,86.0 % of ctl,106.4 % of ctl,,106.4 % of ctl,68.3,68.3 % of ctl,92.9 % of ctl,92.9,
OCCN(CCO)c1nc(N2CCCCC2)c2nc(N(CCO)CCO)nc(N3CCCCC3)c2n1 [Dipyridamole],72.2,72.2,1.66e-05,reduced Aβ1-40,62.6,62.6,useful in reducing Aβ1-42,1.24e-06,102.7 % of ctl,102.7 % of ctl,107.5 % of ctl,6.4,107.5 % of ctl,,,,,
CC(C)N(CCC(C(N)=O)(c1ccccc1)c1ccccn1)C(C)C (stereo not shown) [Disopyramide Phosphate],83.5,83.5,,reduced Aβ1-40,66.3,66.3,useful in reducing Aβ1-42,5.33e-05,71.2 % of ctl,71.2 % of ctl,125.8 % of ctl,−3.7,125.8 % of ctl,,,,,"EC50 (Aβ1-40; Neuron, 24 h, read-out: EC50 (molar) Aβ1-40): 7.78e-10 M"
C=C(CC)C(=O)c1ccc(OCC(=O)O)c(Cl)c1Cl [Ethacrynic Acid],4.4,4.4,2.1e-05,reduced Aβ1-40,1.8,1.8,useful in reducing Aβ1-42,2.25e-05,109.9 % of ctl,109.9 % of ctl,101.5 % of ctl,10.0,101.5 % of ctl,,,,,
CC(NCCC(c1ccccc1)c1ccccc1)c1ccccc1 (stereo not shown) [Fendiline Hydrochloride],7.9,7.9,1.25e-05,reduced Aβ1-40,26.2,26.2,useful in reducing Aβ1-42,4.2e-05,7.7 % of ctl,7.7 % of ctl,1881.4 % of ctl,−3.0,1881.4 % of ctl,,,,,
C[N+](C)(C)CCCCCC[N+](C)(C)C [Hexamethonium Bromide],,,,reduced Aβ1-40,,,useful in reducing Aβ1-42,,92.1 % of ctl,92.1 % of ctl,99.7 % of ctl,,99.7 % of ctl,84.8,84.8 % of ctl,72.6 % of ctl,72.6,
